Results on one molecule are retold here after patent US20220257626A1, “TREATMENT COMPRISING SGLT INHIBITORS” (Novartis AG, priority 2019, published 2022).

Common to all, as to assay type: in vivo, human
A short description of series [1]: Phase 2 dose range finding study in obese patients (CLIK066B2201). The settings on record: 30 mg QD; expected. On the procedure: A dose of 30 mg QD is expected to achieve approximately 70% of maximum observed efficacy (using weight loss as a downstream marker for efficacy; CLIK066B2201). Licogliflozin is currently being tested as 30 mg and 150 mg QD monotherapy in NASH (CLIK066X2204). […] To minimize the risk of GI adverse effects of the SGLT1 inhibition in the gut such as diarrhea, licogliflozin will administered in the evening.

The nature of series [2]: Placebo-controlled, randomized Phase 2a study in patients with NASH (CLIK066X2204, NCT03205150), interim analysis. The settings on record: for patients reporting diarrhea (most common adverse event): 12 weeks, placebo 38.9%. The protocol:
Method: Patients with histologically confirmed NASH (F1-F3) or phenotypic NASH (BMI≥27 kg/m^2 in non-Asians or ≥23 kg/m^2 in Asians, ALT≥50 (males) or ≥35 (females) and type 2 diabetes (T2DM)) received daily oral licogliflozin at 150 mg, 30 mg or placebo in a 2:2:1 ratio for 12 weeks (NCT03205150). The primary endpoint is the effect on ALT level after 12 weeks of treatment. Secondary endpoints include improvement in body weight, liver fat content and AST, amongst others. The study size is 110 of which 77 have completed (placebo (n=18); licogliflozin 30 mg (n=25) and licogliflozin 150 mg (n=34)) and are included in the interim analysis.

Series [3] in a line: Randomized, double-blind, placebo controlled dose finding study in Japanese patients with obesity disease. On the procedure:
This study was a randomized, double-blind, placebo controlled, dose finding study to evaluate the effect of licogliflozin (2.5, 10, 25 and 50 mg qd) in 126 Japanese patients with obesity disease. The primary objective was to examine the dose-response relationship of licogliflozin treatment in body weight reduction relative to placebo at 12 weeks. The secondary objectives included assessment of responder rates, change in parameters related to complications, visceral and subcutaneous fat area, and safety through 12 weeks of treatment.

As to `CCc1ccc([C@@H]2O[C@H](CO)[C@@H](O)[C@H](O)[C@H]2O)cc1Cc1ccc2c(c1)OCCO2` [licogliflozin, (2S,3R,4R,5S,6R)-2-(3-((2,3-dihydrobenzo[b][1,4]dioxin-6-yl)methyl)-4-ethylphenyl)-6-(hydroxymethyl)tetrahydro-2H-pyran-3,4,5-triol], in series [1], the “share of maximum observed efficacy (weight loss as downstream marker)” value is on record as “approximately 70%”. In addition, the “patients reporting diarrhea (most common adverse event)” value was 40% in series [2] (30 mg) and 76.5% in series [2] (150 mg). Also, the “reduction of ALT and liver fat (interim analysis)” value in series [2] (150 mg QD treatment group) is listed as “promising reduction”. Moreover, in series [2] (150 mg QD treatment group, interim analysis), the “incidence of gastrointestinal events (mainly diarrhea)” value is given as “significant incidence”. The safety and tolerability entry in series [3] (2.5, 10, 25 and 50 mg qd over 12 weeks) was “safe and well tolerated”. Besides, the ketoacidosis entry in series [3] (2.5, 10, 25 and 50 mg qd, 12 weeks) is “no ketoacidosis”. Also, the “patients who achieved reduction of ≥3% in body weight” value in series [3] (10, 25 and 50 mg qd dose groups, placebo 7.1%, p≤0.002 for all) is at least 50%.
